US6809107B1, “Neurotrophic pyrrolidines and piperidines, and related compositions and methods” (Ortho-McNeil Pharmaceutical, Inc., priority 1999, dated 2004)
Each block holds one molecule with its values, some of them ahead of it.

Experiments:
[1] = target: T1, α-4,β-2 nicotinic acetycholine receptor (α4β2nAChR) (Rattus norvegicus, UniProt P09483+P12390); test: Nicotinic acetylcholine receptor binding assay (3H-cytisine)
T1 construct: crude synaptic membrane preparations from rat cerebral cortex, striatum and hippocampus; from tissue; host or cells: rat cerebral cortex, striatum and hippocampus (crude synaptic membranes, P2 fraction)
T1 sequence (P09483 31-630): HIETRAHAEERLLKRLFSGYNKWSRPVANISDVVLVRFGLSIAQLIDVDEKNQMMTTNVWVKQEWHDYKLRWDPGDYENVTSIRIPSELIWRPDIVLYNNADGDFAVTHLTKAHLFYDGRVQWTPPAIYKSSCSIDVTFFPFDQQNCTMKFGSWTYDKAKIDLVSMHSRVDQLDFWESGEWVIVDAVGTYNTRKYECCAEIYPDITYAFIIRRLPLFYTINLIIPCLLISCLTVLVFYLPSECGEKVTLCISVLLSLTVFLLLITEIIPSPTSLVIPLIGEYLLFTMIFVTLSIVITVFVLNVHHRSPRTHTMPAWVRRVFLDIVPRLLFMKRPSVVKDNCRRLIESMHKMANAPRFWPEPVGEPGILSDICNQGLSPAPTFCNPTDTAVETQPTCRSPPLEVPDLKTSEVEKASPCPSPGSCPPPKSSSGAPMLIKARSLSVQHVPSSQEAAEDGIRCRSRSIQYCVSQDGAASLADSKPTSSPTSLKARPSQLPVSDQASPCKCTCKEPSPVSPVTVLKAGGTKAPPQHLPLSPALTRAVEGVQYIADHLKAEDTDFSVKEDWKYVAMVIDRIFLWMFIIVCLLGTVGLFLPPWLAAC
T1 sequence (P12390 25-500): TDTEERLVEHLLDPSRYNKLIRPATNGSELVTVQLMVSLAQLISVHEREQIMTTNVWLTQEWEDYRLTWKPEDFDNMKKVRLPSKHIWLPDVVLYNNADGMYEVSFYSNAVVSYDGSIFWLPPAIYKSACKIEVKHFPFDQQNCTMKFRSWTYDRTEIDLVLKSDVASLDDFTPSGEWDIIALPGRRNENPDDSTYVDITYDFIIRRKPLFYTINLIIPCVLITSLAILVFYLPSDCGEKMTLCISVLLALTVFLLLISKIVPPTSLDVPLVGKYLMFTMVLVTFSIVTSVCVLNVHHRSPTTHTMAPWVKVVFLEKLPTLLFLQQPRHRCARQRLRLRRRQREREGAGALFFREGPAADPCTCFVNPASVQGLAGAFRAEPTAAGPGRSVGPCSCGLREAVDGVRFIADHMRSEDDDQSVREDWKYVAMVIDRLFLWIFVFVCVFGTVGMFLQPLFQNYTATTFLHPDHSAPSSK
Method: Binding of ^3H-cytisine to neuronal nicotinic acetylcholine receptors is accomplished using crude synaptic membrane preparations from rat cerebral cortex, striatum and hippocampus. Either fresh or frozen membranes are homogenized in 50 volumes of 10 mM HEPES (N-2-hydroxyethylpiperazine-N′-2-ethanesulfonic acid, pH 7.4) and centrifuged at 42,000 g. The P2 fraction is resuspended in 40 volumes of 10 mM HEPES and centrifuged at 42,000 g. This step is repeated and the P2fraction was resuspended in 25 volumes (e.g., 1 g of tissue into 25 mL) of a medium comprised of Na^+-HEPES buffer (10 mM, pH 7.4), 5 mM MgCl2, 0.01% powdered bovine serum albumin (BSA) and 100 mM NaCl. […] The binding reaction is terminated by filtration using a Brandel Cell Harvester; the amount of bound ^3H-cytisine for each sample is quantitated using a Wallac LKB 1205 Betaplate liquid scintillation counter. […] Nonspecific binding is determined using 10 μM (+)-epibatidine to block all binding of ^3H-cytisine to the α-4,β-2 nicotinic acetycholine receptor (α4β2nAChR). The activity of each test compound is calculated as follows: after correcting for nonspecific binding, the percent inhibition of specific binding (total binding minus nonspecific) is calculated. […] The IC50 values are calculated by performing a nonlinear regression analysis of the data using a standard regression program.

[2] = system: Human M17 Neuroblastoma Cells; test: Neurite outgrowth assay in human M17 neuroblastoma cells; type: cell-based; details: MAP-2 immunofluorescence, active if greater than mean DMSO-treated control
Method: M17 human neuroblastoma cells are cultured in 1:1 ratio of EMEM and Ham's F12 with 1×NEM and 10% FBS. The culture media contains 1×PSN antibiotic and is exchanged every other day, and the cells are passed in log phase near confluence.
(§1) Cultures are incubated with normal horse serum (1:50; Vector Labs) for about 20 min, rinsed and then incubated with primary antibody, microtubule associated-protein 2 (anti-mouse MAP-2; 1:1000; Chemicon) for about 2 h at about RT. Following primary antibody, cultures are rinsed and incubated with fluorescein anti-mouse IgG (rat absorbed; 1:50; Vector Labs) for about 1 h. After fluorescein incubation, the cultures are rinsed and read in PBS on a fluorescent plate reader (excitation: 485 nm; emission: 530 nm). […] The response to test compound is reported as percent of DMSO-treated control.

[3] = system: Dorsal Root Ganglion (DRG); test: Dorsal Root Ganglion (DRG) culture, neurite outgrowth; type: cell-based, rat; set-up: key: + = Positive results for each experiment; − = Negative results for each experiment; details: neurite outgrowth from DRG, test compound 50-250 nM, days 1-5; positive if neurites of ≧1 diameter of the DRG; one symbol per experiment
Method: Dorsal Root Ganglion (DRG) Culture
DRG are dissected from newborn or 1-day-old CD rats and placed into PBS on ice. After rinsing twice with sterile plating medium, DRG are transferred to empty wells of a 6-well plate coated with polyomithine/laminin (Becton Dickinson Labware) using #7 curved forceps. Three ml/well of plating medium are then added very gently, so as not to disturb the DRG. Plating medium is Leibovitz's L-15 medium (Gibco), plus 0.6% glucose, 33 mM KCl, 10% FCS, 10 mM Hepes and penicillin/streptomycin/glutamine. After overnight incubation at about 37° C. in 5% CO2, this medium is replaced with 3 mL/well of assay medium [Leibovitz's L-15 medium plus 0.6% glucose, 1% FCS, 1% N-2 supplement (Gibco), 10 μM ara-C, 10 mM Hepes, and penicillin/streptomycin/glutamine] containing either vehicle (DMSO, 1/200,000), positive control (2-4 ng/mL NGF) or test compound (50-250 nM). All media are prepared fresh daily. DRG are microscopically examined for neurite outgrowth on days 1-5.

[4] = system: Long-Evans rats, compressed facial nerve; test: Rat facial nerve compression model; type: in vivo; details: p.o. about 20 mg/kg twice a day for 15 days after surgery; compared to vehicle and internal control; FIG. 1
Method: In this model, compressing the facial nerve causes paralysis of the whisker muscle on that side of the face. The untreated facial nerve on the other side functions as an internal control. […] The whisker movement recovery rate on the paralyzed side compared to the vehicle and internal control is shown in this FIGURE.
Long-Evans rats are anesthetized under ketamine (60 mg/kg)/xylazine (6mg/kg). The facial nerve is exposed and mechanically compressed with forceps near the stylomastoid foramen unilaterally with the opposite, non-lesioned side serving as an internal control. […] Rats received test compound p.o. at about 20 mg/kg twice a day for 15 days after the surgery. Control rats received vehicle only. Three to eight rats are tested in each group. Restoration of whisker movement after the treatment with compounds of the present invention is recorded at different post-operative time points daily, up to two weeks, and is shown in FIG. 1.

[5] = system: Primary Rat Hippocampal Cells; test: Neurite outgrowth assay in primary rat hippocampal cells; type: cell-based; details: MAP-2 immunofluorescence, active if greater than mean DMSO-treated control
Method: Hippocampal cells are dissected from the brains of embryonic day 18 rat pups and dissociated with trypsin (1 mg/mL) and trituration. Cells are seeded at 30,000 cells/well in 96-well plates filled with 100 μL MEM and 10% FBS. At 7 days in culture, cells are fixed with 4% paraformaldehyde and immuno-fluorescence is performed.
as §1

SMILES: c1cncc(OCc2ncoc2[C@@H]2CCCN2)c1 [Compound 6]
IC50 [1]: 0.801 µM

SMILES: c1cncc(OCc2csc([C@@H]3CCCN3)n2)c1 [Compound 17]
IC50 [1]: 0.0638 µM

SMILES: CCC(C)(C)C(=O)C(=O)N1CCC[C@H]1c1nc(COc2cccnc2)cs1 [Compound 19]
M17 Cell Response [2]: 110% of DMSO-treated control

SMILES: CCC(C)(C)C(=O)C(=O)N1CCC[C@H]1C(=O)NNC(=O)[C@@H]1CCCN1C(=O)C(=O)C(C)(C)CC [Compound 24]
DRG [3]: + and −

melting point: 123 to 124 °C
SMILES: CCC(C)(C)C(=O)C(=O)N1CCCC1c1nnc([C@@H]2CCCN2C(=O)C(=O)C(C)(C)CC)o1 (some centres unmarked) [Compound 30]
Restoration of whisker movement on the paralyzed side [4]: restored more rapidly

melting point: 132 to 133 °C
SMILES: O=C(C(=O)N1CCCC1c1nnc([C@@H]2CCCN2C(=O)C(=O)C2CCCCC2)o1)C1CCCCC1 (some centres unmarked) [Compound 49]

SMILES: CCC(C)(C)C(=O)C(=O)N1CCC[C@@H]1C(=O)NNC(=O)[C@H]1CCCN1C(=O)C(=O)C(C)(C)CC [Compound 63]
Rat Hippocampal Cell Response [5]: 110% of DMSO-treated control
